From US12187723B2 (BRISTOL-MYERS SQUIBB COMPANY, priority 2019, dated 2025)
Where a name gives a salt, the structure may show the parent alone. One block for each compound: values may come before it.

Legend:
human TLR9 = molecular target: T1, human TLR9 (Homo sapiens, UniProt Q9NR96); assay: TLR9 inhibition reporter assay (HEK-Blue SEAP); format: cell-based; details: HEK-Blue cells overexpressing human TLR9, ODN2006 5 nM, 22 hour incubation
T1 construct: host or cells: HEK-Blue cells
T1 sequence (Q9NR96 26-1032): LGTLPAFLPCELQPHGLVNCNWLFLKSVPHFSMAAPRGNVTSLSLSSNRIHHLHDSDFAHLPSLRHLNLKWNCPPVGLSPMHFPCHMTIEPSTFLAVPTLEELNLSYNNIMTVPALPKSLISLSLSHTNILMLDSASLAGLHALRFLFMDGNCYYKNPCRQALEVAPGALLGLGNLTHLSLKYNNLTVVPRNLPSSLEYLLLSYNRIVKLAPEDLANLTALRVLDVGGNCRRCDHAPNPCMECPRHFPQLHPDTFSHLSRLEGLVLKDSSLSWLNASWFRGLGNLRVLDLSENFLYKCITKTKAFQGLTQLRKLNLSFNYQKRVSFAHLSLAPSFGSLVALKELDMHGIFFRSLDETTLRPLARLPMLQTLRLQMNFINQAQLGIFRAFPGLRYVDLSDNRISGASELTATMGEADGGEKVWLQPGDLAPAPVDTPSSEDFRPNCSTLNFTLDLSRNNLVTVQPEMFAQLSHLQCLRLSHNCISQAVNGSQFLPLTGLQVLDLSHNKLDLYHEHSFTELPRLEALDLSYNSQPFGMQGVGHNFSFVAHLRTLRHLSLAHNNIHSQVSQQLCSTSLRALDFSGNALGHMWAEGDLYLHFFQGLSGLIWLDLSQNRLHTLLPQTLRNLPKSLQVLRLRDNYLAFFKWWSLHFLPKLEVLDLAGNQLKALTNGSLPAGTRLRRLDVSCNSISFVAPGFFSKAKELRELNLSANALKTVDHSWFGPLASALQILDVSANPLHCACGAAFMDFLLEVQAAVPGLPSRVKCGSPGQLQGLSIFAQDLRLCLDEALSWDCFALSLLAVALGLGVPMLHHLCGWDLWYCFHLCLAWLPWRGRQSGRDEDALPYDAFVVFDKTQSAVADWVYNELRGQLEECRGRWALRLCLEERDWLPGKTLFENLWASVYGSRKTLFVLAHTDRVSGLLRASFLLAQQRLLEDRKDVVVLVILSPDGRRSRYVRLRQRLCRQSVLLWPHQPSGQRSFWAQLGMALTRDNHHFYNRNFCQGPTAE
Summary of the method: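 Human TLR7/8/9 HEK-Blue reporter lines; dose range 0.05 nM–50 μM; 30 min RT preincubation; stimulus gardiquimod 7.5 μM / R848 15.9 μM / ODN2006 5 nM respectively; 22 h, 37 °C; SEAP detected colorimetrically.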

human TLR7 = molecular target: T2, human TLR7 (Homo sapiens, UniProt Q9NYK1); assay: TLR7 inhibition reporter assay (HEK-Blue SEAP); format: cell-based; details: HEK-Blue cells overexpressing human TLR7, gardiquimod 7.5 μM, 22 hour incubation
T2 construct: host or cells: HEK-Blue cells
T2 sequence (Q9NYK1 27-1049): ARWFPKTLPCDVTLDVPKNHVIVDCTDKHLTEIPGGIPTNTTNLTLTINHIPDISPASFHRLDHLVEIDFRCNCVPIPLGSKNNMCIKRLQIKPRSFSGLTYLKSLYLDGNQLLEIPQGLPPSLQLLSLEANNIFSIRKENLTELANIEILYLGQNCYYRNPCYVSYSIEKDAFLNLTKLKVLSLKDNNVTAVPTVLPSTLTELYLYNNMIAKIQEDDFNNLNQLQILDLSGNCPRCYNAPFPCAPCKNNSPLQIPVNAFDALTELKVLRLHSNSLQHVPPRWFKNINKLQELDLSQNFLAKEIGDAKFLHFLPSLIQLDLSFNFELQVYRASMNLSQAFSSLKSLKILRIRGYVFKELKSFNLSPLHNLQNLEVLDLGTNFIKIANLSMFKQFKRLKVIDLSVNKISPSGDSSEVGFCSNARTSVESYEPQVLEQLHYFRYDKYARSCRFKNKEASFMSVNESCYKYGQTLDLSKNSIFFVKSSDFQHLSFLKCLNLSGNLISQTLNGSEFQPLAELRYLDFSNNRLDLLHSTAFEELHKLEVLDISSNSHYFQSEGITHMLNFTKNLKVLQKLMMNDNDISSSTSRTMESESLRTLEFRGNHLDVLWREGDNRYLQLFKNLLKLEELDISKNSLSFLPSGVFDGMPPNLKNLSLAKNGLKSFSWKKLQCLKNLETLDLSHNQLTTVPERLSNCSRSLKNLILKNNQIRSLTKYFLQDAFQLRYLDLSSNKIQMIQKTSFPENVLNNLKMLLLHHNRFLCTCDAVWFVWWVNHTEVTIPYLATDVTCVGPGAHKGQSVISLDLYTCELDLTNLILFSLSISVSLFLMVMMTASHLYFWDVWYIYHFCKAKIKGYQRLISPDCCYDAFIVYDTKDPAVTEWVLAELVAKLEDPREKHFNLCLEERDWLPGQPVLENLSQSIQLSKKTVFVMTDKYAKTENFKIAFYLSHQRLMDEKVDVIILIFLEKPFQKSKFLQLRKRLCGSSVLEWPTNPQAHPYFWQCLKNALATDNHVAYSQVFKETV
Summary of the method: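 Cells (15000/well for TLR7, 20,000 for TLR8) were treated with compounds over 0.05 nM-50 μM final. After 22 h at 37° C, 5% CO2, SEAP was measured with HEK-Blue Detection reagent; percent inhibition was taken as reduction of agonist-plus-DMSO signal relative to a known inhibitor.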

Compound: COc1cc(-c2cc3[nH]c(=O)n(C4CCC(N5C6CCC5COC6)CC4)c3cc2C(C)C)cn2ncnc12 (single isomer, unassigned) [Example 252, 1-(4-(3-oxa-8-azabicyclo[3.2.1]octan-8-yl)cyclohexyl)-6-isopropyl-5-(8-methoxy-[1,2,4]triazolo[1,5-a]pyridin-6-yl)-1,3-dihydro-2H-benzo[d]imidazol-2-one]
IC50 (human TLR9): > 50000 nM
IC50 (human TLR7): 40.5 nM

Compound: Cc1cc2c(cc1-c1cc(C)c3ncnn3c1)[nH]c(=O)n2[C@@H]1CCCN(CC(C)(C)C)C1 [Example 26, (R)-6-methyl-5-(8-methyl-[1,2,4]triazolo[1,5-a]pyridin-6-yl)-1-(1-neopentylpiperidin-3-yl)-1,3-dihydro-2H-benzo[d]imidazol-2-one]
IC50 (human TLR9): 6720 nM
IC50 (human TLR7): 235 nM

Compound: COc1cc(-c2cc3[nH]c(=O)n(C4CCC(N5CCSCC5)CC4)c3cc2C(C)C)cn2ncnc12 (centres unmarked) [Example 250, 6-isopropyl-5-(8-methoxy-[1,2,4]triazolo[1,5-a]pyridin-6-yl)-1-(4-thiomorpholinocyclohexyl)-1,3-dihydro-2H-benzo[d]imidazol-2-one]
IC50 (human TLR9): 7250 nM
IC50 (human TLR7): 1.99 nM

Compound: Cc1c(-c2cc3[nH]c(=O)n(C4CCC(N5CC(F)C5)CC4)c3cc2C(C)C)cn2ncnc2c1C (centres unmarked) [Example 280, 5-(7,8-dimethyl-[1,2,4]triazolo[1,5-a]pyridin-6-yl)-1-(4-(3-fluoroazetidin-1-yl)cyclohexyl)-6-isopropyl-1,3-dihydro-2H-benzo[d]imidazol-2-one]
IC50 (human TLR9): 20600 nM
IC50 (human TLR7): 4.91 nM

Compound: Cc1c(-c2cc3[nH]c(=O)n(C4CCC(N5CCC(F)(F)CC5)CC4)c3cc2C(C)C)cn2ncnc2c1C (single isomer, unassigned) [Example 275, 1-(4-(4,4-difluoropiperidin-1-yl)cyclohexyl)-5-(7,8-dimethyl-[1,2,4]triazolo[1,5-a]pyridin-6-yl)-6-isopropyl-1,3-dihydro-2H-benzo[d]imidazol-2-one]
IC50 (human TLR9): 19900 nM
IC50 (human TLR7): 13.7 nM

Compound: COc1c(C)c(-c2cc3[nH]c(=O)n(C4CCC(NCC5(S(C)(=O)=O)CC5)CC4)c3cc2C(C)C)cn2ncnc12 (single isomer, unassigned) [Example 259]
IC50 (human TLR9): 40500 nM
IC50 (human TLR7): 10.4 nM

Compound: COc1cc(-c2cc3[nH]c(=O)n(C4CCC(N5C[C@@H](F)[C@@H](F)C5)CC4)c3cc2C(C)C)cn2ncnc12 (single isomer, unassigned) [Example 292]
IC50 (human TLR9): 28900 nM
IC50 (human TLR7): 2.21 nM

Compound: COc1cc(-c2cc3[nH]c(=O)n(C4CCC(N5CCC(F)(F)CC5)CC4)c3cc2C(C)C)cn2ncnc12 (single isomer, unassigned) [Example 246, 1-(4-(4,4-difluoropiperidin-1-yl)cyclohexyl)-6-isopropyl-5-(8-methoxy-[1,2,4]triazolo[1,5-a]pyridin-6-yl)-1,3-dihydro-2H-benzo[d]imidazol-2-one]
IC50 (human TLR9): 15500 nM
IC50 (human TLR7): 2.81 nM

Compound: COCCNC1CCC(n2c(=O)[nH]c3cc(-c4cn5ncnc5c(OC)c4C)c(C(C)C)cc32)CC1 (centres unmarked) [Example 257]
IC50 (human TLR9): 23300 nM
IC50 (human TLR7): 6.97 nM

Compound: COc1cc(-c2cc3[nH]c(=O)n(C4CCC(N5CC[C@H](F)C5)CC4)c3cc2C(C)C)cn2ncnc12 (stereo partly drawn) [Example 287, (S)-1-(4-(3-fluoropyrrolidin-1-yl)cyclohexyl)-6-isopropyl-5-(8-methoxy-[1,2,4]triazolo[1,5-a]pyridin-6-yl)-1,3-dihydro-2H-benzo[d]imidazol-2-one]
IC50 (human TLR9): 10900 nM
IC50 (human TLR7): 1.53 nM

Compound: COC[C@@H]1CCN(C2CCC(n3c(=O)[nH]c4cc(-c5cc(OC)c6ncnn6c5)c(C(C)C)cc43)CC2)C1 (single isomer, unassigned) [Example 291]
IC50 (human TLR9): 12300 nM
IC50 (human TLR7): 1.71 nM

Compound: COc1c(C)c(-c2cc3[nH]c(=O)n(C4CCC(N5CCCOCC5)CC4)c3cc2C(C)C)cn2ncnc12 (single isomer, unassigned) [Example 262, 1-(4-(1,4-oxazepan-4-yl)cyclohexyl)-6-isopropyl-5-(8-methoxy-7-methyl-[1,2,4]triazolo[1,5-a]pyridin-6-yl)-1,3-dihydro-2H-benzo[d]imidazol-2-one]
IC50 (human TLR9): 15500 nM
IC50 (human TLR7): 2.3 nM

Compound: Cc1cc2c(cc1-c1cc(C)c3ncnn3c1)[nH]c(=O)n2[C@H]1CC[C@@H](N(C)C)CC1 [Example 19, 1-((1s,4s)-4-(dimethylamino)cyclohexyl)-6-methyl-5-(8-methyl-[1,2,4]triazolo[1,5-a]pyridin-6-yl)-1,3-dihydro-2H-benzo[d]imidazol-2-one]
IC50 (human TLR9): 16400 nM
IC50 (human TLR7): 21.3 nM

These reach a lower IC50 (human TLR9). Values come first.

IC50 (human TLR9): 1020 nM
IC50 (human TLR7): 50.5 nM
Compound: Cc1cc(-c2cc(C)c3ncnn3c2)cc2[nH]c(=O)n(C3CCNCC3)c12 [106 F, 7-methyl-5-(8-methyl-[1,2,4]triazolo[1,5-a]pyridin-6-yl)-1-(piperidin-4-yl)-1,3-dihydro-2H-benzo[d]imidazol-2-one]

IC50 (human TLR9): 4350 nM
IC50 (human TLR7): 20.2 nM
Compound: Cc1cc2c(cc1-c1cc(C)c3ncnn3c1)[nH]c(=O)n2[C@H]1CC[C@H](NC(C)C)CC1 [Example 25, 1-((1r,4s)-4-(isopropylamino)cyclohexyl)-6-methyl-5-(8-methyl-[1,2,4]triazolo[1,5-a]pyridin-6-yl)-1,3-dihydro-2H-benzo[d]imidazol-2-one]

IC50 (human TLR9): 2640 nM
IC50 (human TLR7): 366 nM
Compound: COc1cc(-c2cc3[nH]c(=O)n(C4CCNCC4)c3cc2C)cn2ncnc12 [1 E, 5-(8-methoxy-[1,2,4]triazolo[1,5-a]pyridin-6-yl)-6-methyl-1-(piperidin-4-yl)-1H-benzo[d]imidazol-2(3H)-one, TFA]

IC50 (human TLR9): 809 nM
IC50 (human TLR7): 43 nM
Compound: COc1cc(-c2cc3[nH]c(=O)n([C@@H]4CCCNC4)c3cc2C)cn2ncnc12 [1 EH, (R)-5-(8-methoxy-[1,2,4]triazolo[1,5-a]pyridin-6-yl)-6-methyl-1-(piperidin-3-yl)-1,3-dihydro-2H-benzo[d]imidazol-2-one]

IC50 (human TLR9): 4630 nM
IC50 (human TLR7): 4.77 nM
Compound: Cc1cc2c(cc1-c1cc(C)c3ncnn3c1)[nH]c(=O)n2[C@H]1CC[C@@H](NC(C)C)CC1 [Example 22, 1-((1s,4s)-4-(isopropylamino)cyclohexyl)-6-methyl-5-(8-methyl-[1,2,4]triazolo[1,5-a]pyridin-6-yl)-1,3-dihydro-2H-benzo[d]imidazol-2-one]

IC50 (human TLR9): 2500 nM
IC50 (human TLR7): 5.47 nM
Compound: CCc1cc2c(cc1-c1cc(OC)c3ncnn3c1)[nH]c(=O)n2[C@@H]1CCCNC1 [119 FB, (R)-6-ethyl-5-(8-methoxy-[1,2,4]triazolo[1,5-a]pyridin-6-yl)-1-(piperidin-3-yl)-1,3-dihydro-2H-benzo[d]imidazol-2-one]
